These results are taken from ChEMBL document CHEMBL1124164, “Synthesis and estrogen receptor selectivity of 1,1-bis(4-hydroxyphenyl)-2-(p-halophenyl)ethylenes” (J Med Chem, 1988).

As usually defined, the EC50 is the midpoint of the concentration-response curve.

Data set [1] has as its target T1, Estrogen receptor (Rattus norvegicus, UniProt P06211+Q62986). As to the kind of experiment: In vitro displacement of [3H]estradiol from estrogen receptor of rat uterine cystol. It is filed as protein assay.
Data set [2] deals with T2, Estrogen receptor (Rattus norvegicus) (UniProt P06211+Q62986).
Description: Specific binding to estrogen receptor in rat uterine cytosol(+/-SD)
In data set [3] the target is T1, Estrogen receptor.
Description: In vitro displacement of 3 nM [3H]4-hydroxytamoxifen from estrogen receptor of rat uterine cystol
Data set [4] deals with T2, Estrogen receptor (Rattus norvegicus). This is another data set of the same source.
Data set [5] shares this target. The source holds these as a separate data set.
Description: Non specific binding to estrogen receptor in rat uterine cytosol(+/-SD)
Data set [6] concerns Rattus norvegicus. The experiment in a line: Distribution of radiolabeled compound in liver of rat 1 hr after ip administration of dose; fmol equivalents per 100 mg. It is filed as ADME, organism-based. Conditions: in vivo.
Data set [7] relates to Rattus norvegicus. The experiment in a line: Distribution of radiolabeled compound in intestinal contents of rat 1 hr after ip administration of dose; fmol equivalents per 100 mg. Conditions: in vivo. Format: ADME, organism-based.
Data set [8] concerns Rattus norvegicus. The experiment in a line: Distribution of radiolabeled compound in intestinal contents of rat 4 hr after ip administration of dose; fmol equivalents per 100 mg. Format: ADME, organism-based. Conditions: in vivo.
Data set [9] relates to Rattus norvegicus. As to the kind of experiment: Distribution of radiolabeled compound in liver of rat 4 hr after ip administration of dose; fmol equivalents per 100 mg. It is filed as ADME, organism-based. As to conditions: in vivo.
For data set [10], the system named is Rattus norvegicus. The experiment in a line: Distribution of radiolabeled compound in uterus of rat 1 hr after iv administration of dose; fmol equivalents per 100 mg. Format: ADME, organism-based. As to conditions: in vivo.
Data set [11] relates to Rattus norvegicus. As to the kind of experiment: Distribution of radiolabeled compound in plasma of rat 1 hr after ip administration of dose and excess 8 microg of estradiol; fmol equivalents per 100 mg. Format: ADME, organism-based. Conditions: in vivo.
For data set [12], the system named is Rattus norvegicus. As to the kind of experiment: Distribution of radiolabeled compound in intestinal contents of rat 1 hr after iv administration of dose; fmol equivalents per 100 mg. Format: ADME, organism-based. Conditions: in vivo.
The species named for data set [13] is Rattus norvegicus. As to the kind of experiment: Effect of Beta Glucuronidase on recovery of 3H associated with compound from rat liver. It is filed as ADME, organism-based. As to conditions: in vivo.
Data set [14] has as its system Rattus norvegicus. The experiment in a line: Distribution of radiolabeled compound in plasma of rat 1 hr after iv administration of dose; fmol equivalents per 100 mg. Format: ADME, organism-based. Conditions: in vivo.
The species entered for data set [15] is Rattus norvegicus. The experiment in a line: Effect of Beta Glucuronidase on recovery of 3H associated with compound from rat plasma. It is filed as ADME, organism-based.
The species entered for data set [16] is Rattus norvegicus. As to the kind of experiment: Relative recovery of 3H associated with compound from rat Intestinal contents. It is filed as ADME, organism-based. As to conditions: in vivo.
Data set [17] has as its system Rattus norvegicus. The experiment in a line: Distribution of radiolabeled compound in liver of rat 1 hr after ip administration of dose and excess 8 microg of estradiol; fmol equivalents per 100 mg. It is filed as ADME, organism-based. Conditions: in vivo.
For data set [18], the system named is Rattus norvegicus. As to the kind of experiment: Distribution of radiolabeled compound in uterus of rat 8 hr after ip administration of dose; fmol equivalents per 100 mg. Format: ADME, organism-based. As to conditions: in vivo.
For data set [19], the species on record is Rattus norvegicus. The experiment in a line: Effect of Beta Glucuronidase on recovery of 3H associated with compound from rat uterus. Format: ADME, organism-based. As to conditions: in vivo.
In data set [20] the target is T2, Estrogen receptor (Rattus norvegicus). As to conditions: Uterus, Cytosol.
Description: Non specific binding to estrogen receptor in rat uterine cytosol using unlabeled ligand
Data set [21] has the same target. As to the kind of experiment: Ratio of specific binding to non-specific binding at rat estrogen receptor. Format: protein assay.
Data set [22] relates to Rattus norvegicus. As to the kind of experiment: Distribution of radiolabeled compound in intestinal contents of rat 8 hr after ip administration of dose; fmol equivalents per 100 mg. Format: ADME, organism-based. As to conditions: in vivo.
The subject of data set [23] is Rattus norvegicus. The experiment in a line: Distribution of radiolabeled compound in liver of rat 8 hr after ip administration of dose; fmol equivalents per 100 mg. Format: ADME, organism-based. As to conditions: in vivo.
Data set [24] concerns Rattus norvegicus. The experiment in a line: Distribution of radiolabeled compound in uterus of rat 1 hr after ip administration of dose and excess 8 microg of estradiol; fmol equivalents per 100 mg. Format: ADME, organism-based. As to conditions: in vivo.
The subject of data set [25] is Rattus norvegicus. As to the kind of experiment: Distribution of radiolabeled compound in intestinal contents of rat 1 hr after ip administration of dose and excess 8 microg of estradiol; fmol equivalents per 100 mg. As to conditions: in vivo. It is filed as ADME, organism-based.
Data set [26] deals with Rattus norvegicus. The experiment in a line: Distribution of radiolabeled compound in plasma of rat 8 hr after ip administration of dose; fmol equivalents per 100 mg. It is filed as ADME, organism-based. As to conditions: in vivo.
Data set [27] is filed under the species Rattus norvegicus. The experiment in a line: Relative recovery of 3H associated with compound from rat liver. It is filed as ADME, organism-based. Conditions: in vivo.
The species named for data set [28] is Rattus norvegicus. As to the kind of experiment: Relative recovery of 3H associated with compound from rat uterus. Format: ADME, organism-based. As to conditions: in vivo.
In data set [29] the target is T2, Estrogen receptor (Rattus norvegicus). Conditions: Uterus, Cytosol. This is another data set of the same source.
Data set [30] deals with Rattus norvegicus. As to the kind of experiment: Distribution of radiolabeled compound in uterus of rat 1 hr after ip administration of dose; fmol equivalents per 100 mg. Format: ADME, organism-based. As to conditions: in vivo.
Data set [31] relates to Rattus norvegicus. The experiment in a line: Distribution of radiolabeled compound in liver of rat 1 hr after iv administration of dose; fmol equivalents per 100 mg. It is filed as ADME, organism-based. As to conditions: in vivo.
In data set [32] the test system is Rattus norvegicus. The experiment in a line: Distribution of radiolabeled compound in uterus of rat 4 hr after ip administration of dose; fmol equivalents per 100 mg. It is filed as ADME, organism-based. Conditions: in vivo.
Data set [33] has as its system Rattus norvegicus. As to the kind of experiment: Distribution of radiolabeled compound in plasma of rat 4 hr after ip administration of dose; fmol equivalents per 100 mg. It is filed as ADME, organism-based. As to conditions: in vivo.
In data set [34] the test system is Rattus norvegicus. As to the kind of experiment: Distribution of radiolabeled compound in plasma of rat 1 hr after ip administration of dose. Format: ADME, organism-based. Conditions: in vivo.
Data set [35] is filed under the species Rattus norvegicus. As to the kind of experiment: Relative recovery of 3H associated with compound from rat plasma. Format: ADME, organism-based.
The species named for data set [36] is Rattus norvegicus. The experiment in a line: Effect of Beta Glucuronidase on recovery of 3H associated with compound from rat intestinal contents. It is filed as ADME, organism-based. Conditions: in vivo.

Regarding `Oc1ccc(C(=C(Cl)c2ccccc2)c2ccc(O)cc2)cc1`, the 50% effective concentration (EC50) on Estrogen receptor [1] turned out to be 4.5 nM.
For `CCC(=C(c1ccc(O)cc1)c1ccc(OCCN(C)C)cc1)c1ccccc1`, the Binding in data set [2] worked out at 1080 fM uterus-1; in data set [5] it was 475 fM uterus-1. The molecule further came in with an EC50 at Estrogen receptor [3] of 6 nM. In [4], this molecule had a S/N of 2.3.
`Oc1ccc(C(=Cc2ccc(Br)cc2)c2ccc(O)cc2)cc1` came in with an EC50 on Estrogen receptor [1] of 10.4 nM. That is a double-digit nanomolar value.
Consider `Oc1ccc(C(=Cc2ccc(F)cc2)c2ccc(O)cc2)cc1`, for which the Distribution with Rattus norvegicus [6] came out at 251 fM/mg; in the data set with Rattus norvegicus [7], 2360 fM/mg; in the data set on Rattus norvegicus [8] it was 834 fM/mg; with Rattus norvegicus [9], 97 fM/mg; in the data set with Rattus norvegicus [10], 429 fM/mg; in the data set with Rattus norvegicus [11] it was 198 fM/mg. Besides, the Distribution in the data set on Rattus norvegicus [12] amounted to 3269 fM/mg; with Rattus norvegicus [14], 144 fM/mg; in the data set with Rattus norvegicus [17], 373 fM/mg; with Rattus norvegicus [18], 87 fM/mg; in the data set on Rattus norvegicus [22], 665 fM/mg; in the data set on Rattus norvegicus [23], 61 fM/mg. Further, the Distribution was 302 fM/mg in the data set on Rattus norvegicus [24]; 880 fM/mg in the data set with Rattus norvegicus [25]; 46 fM/mg in the data set on Rattus norvegicus [26]; 496 fM/mg in the data set with Rattus norvegicus [30]; 318 fM/mg in the data set with Rattus norvegicus [31]; 196 fM/mg in the data set on Rattus norvegicus [32]. Moreover, the Distribution in the data set with Rattus norvegicus [33] turned out to be 56 fM/mg; in the data set with Rattus norvegicus [34], 122 fM/mg. The values for the EC50 on Estrogen receptor [1] and on Estrogen receptor [3] were 2.9 nM and 170 nM, respectively. Moreover, the Recovery in the data set filed under Rattus norvegicus [13] is recorded as 75.9%; in the data set filed under Rattus norvegicus [15], 92.1%; in the data set listed under Rattus norvegicus [16], 5.3%; in the data set filed under Rattus norvegicus [19], 95.9%; in the data set listed under Rattus norvegicus [27], 15.7%; in the data set listed under Rattus norvegicus [28] it was 84.5%. Also, the Recovery in the data set filed under Rattus norvegicus [35] is reported as 28.7%; in the data set listed under Rattus norvegicus [36], 95.4%. Also, the values for the Binding in data set [20] and in data set [29] were 305 fM uterus-1 and 971 fM uterus-1, respectively. Also, the S/N in [21] was found to be 3.2.
As for `Oc1ccc(C(=Cc2ccc(I)cc2)c2ccc(O)cc2)cc1`, the concentration for a half-maximal effect (EC50) turned out to be 3.3 nM at Estrogen receptor [1] and 9.5 nM at Estrogen receptor [3].
Regarding `Oc1ccc(C(=Cc2ccccc2)c2ccc(O)cc2)cc1`, the half-maximal effective concentration (EC50) at Estrogen receptor [1] is 3.2 nM. That is a single-digit nanomolar value.
